From publication PMC9481570, “A small molecule antagonist of SMN disrupts the interaction between SMN and RNAP II” (Nature Communications, 2022)
Several values for one entry are separate records, joined by “and”; a condition that tells them apart may be missing. Equal entries are not always repeated.

Target: T1, SMN (Homo sapiens, UniProt Q16637)
T1 construct: endogenous in cells; host or cells: U2OS
Assay: AP-MS chemical proteomics, SMN
Type: binding
Procedure: The samples for AP-MS were prepared following pulldown procedure as previously described with minor modifications. Briefly, U2OS cells were lysed in RIPA buffer and the cell lysate was equally divided into two groups: (1) DMSO group (control group): the cell lysate was incubated with 20 μM biotin-labeled compound 1; (2) Cpmd 1 group (sample group): the cell lysate was incubated with 20 μM biotin-labeled compound 1 and 200 μM free compound 1. Each group contains three biological replicates. They were incubated overnight at 4 °C, then 30 μL streptavidin beads (Thermo Fisher, 20353) was added and incubated at 4 °C for 1 h. The beads were then washed with RIPA buffer for 3 times, 10 min/time.
Beads were rinsed twice with 50 mM TEAB, pH 7.55, before eluting proteins with 25 μL of 5% SDS, 50 mM TEAB, pH 7.55. The sample was then centrifuged at 17,000 × g for 10 min to remove any debris. Proteins were reduced with 20 mM TCEP (Thermo Fisher, 77720) and incubated at 65 °C for 30 min. […]
Samples were analyzed by nanoLC-MS/MS (nanoRSLC, Thermo Fisher) using an Aurora series (Ion Opticks) reversed phase HPLC column (25 cm length × 75 µm inner diameter) and directly injected to an Orbitrap Eclipse (Thermo Fisher) using a 120 min gradient (mobile phase A = 0.1% formic acid, mobile phase B = 99.9% acetonitrile with 0.1% formic acid; hold 2% B for 5 min, 2–6% B in 0.1 min, 6–25% in 100 min, 25–50% in 15 min) at a flow rate of 350 nL/min. Eluted peptide ions were analyzed using a data-dependent acquisition (DDA) method with resolution settings of 120,000 and 15,000 (at m/z 200) for MS1 and MS2 scans, respectively. […]
The data of AP-MS were analyzed as a previously described method with minor modifications. […] Relative protein quantification was based on the label-free quantification incorporated in the MaxQuant software. […] The missing iBAQ intensity was replaced by a random number, which was calculated from a normal distribution with a width of 0.3 and a downshift of 1.8 defined by Perseus software (version 1.6.5.0). The P-value was calculated by performing two-sample Student’s t-test. […]

T1 sequence (Q16637 whole entry): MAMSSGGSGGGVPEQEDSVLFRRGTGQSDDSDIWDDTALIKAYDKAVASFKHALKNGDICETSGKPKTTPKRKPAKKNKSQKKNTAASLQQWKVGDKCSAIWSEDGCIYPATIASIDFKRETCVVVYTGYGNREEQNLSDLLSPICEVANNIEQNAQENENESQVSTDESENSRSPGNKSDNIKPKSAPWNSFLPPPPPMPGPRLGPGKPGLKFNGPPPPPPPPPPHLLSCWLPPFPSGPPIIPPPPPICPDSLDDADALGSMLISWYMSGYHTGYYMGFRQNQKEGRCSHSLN

## Cn1c2c(c(=N)c3c1CCC3)CCC2 [Compound 1, 4-methyl-2,3,4,5,6,7-hexahydrodicyclopenta[b,e]pyridin-8(1H)-imine]
GN=SMN1/SMN2 (Q16637), Cmpd minus DMSO, -LOG(P-value) 4.49648
  Difference: -8.914
GN=SMN1/SMN2 (Q16637), replicates 1-3
  iBAQ Cmpd: 15.271 and 13.8686 and 14.4098
biotin-Cmpd 1 pulldown, competition with 200 μM compound 1 relative to DMSO, U2OS lysate
  log2 FC (Cmpd 1/DMSO), SMN: −8.9
